This is an account of results in patent publication US20010038824A1, “Intranasal cyclic peptide formulations” (priority 2000, published 2001).

The subject of series [1] is Aspegillus fumigatus CF1003. As to the kind of experiment: In vitro antifungal activity, broth micro-dilution. In kind it is cell-based. The note with it: YNB medium with 0.2% agarose, 1-2 days at 35° C. The procedure: (§1) The in vitro antifungal activities of the representative Aerothricins of the present study were evaluated by determining the 50% inhibitory concentration (IC50), which was calculated as the lowest concentration of an antifungal to inhibit the growth of fungus to […] turbidity compared with the drug-free control growth spectrophotometrically.
(§2) The IC50 values were determined by the broth micro-dilution procedure based on NCCLS Approved Standard with the following minor modifications (National Committee for Clinical Laboratory Standards. (1997) Reference method for broth dilution antifungal susceptibility testing for yeasts. Approved standard. Document M27-A). Yeast Nitrogen Base (YNB; Difco Lab.) supplemented with 1% glucose and 0.25% K2HPO4 was used as testing medium for yeast, the same medium solidified with 0.2% low melting point agarose (BRL) was used for filamentous fungi. Inoculum size was 1-3×10^4 cells/ml, and incubation was performed for 1-2 days at 35° C.
A general note: Dilution methods test growth across graded concentrations, often in twofold steps.

Series [2] deals with Candida albicans CY1002. As to the kind of experiment: In vitro antifungal activity, broth micro-dilution. In kind it is cell-based. To be noted: YNB medium, 1-2 days at 35° C. The procedure:
as §1, §2

Series [3] deals with Fusarium solani CF1088. As to the kind of experiment: In vitro antifungal activity, broth micro-dilution. The format is cell-based. The note with it: YNB medium with 0.2% agarose, 1-2 days at 35° C. The procedure: as §1, §2
The nature of series [4]: Toxicity on administration to mice for 4 weeks. The format is in vivo. The note with it: 5 mg/kg and 30 mg/kg to mice for 4 weeks.
Series [5] in a line: Solubility.
Series [6] concerns Candida albicans. Put plainly: Murine systemic candidiasis. To be noted: i.v., b.i.d×1 day followed by q.d.×2 days; survival on day 14. The format is in vivo, mice. Here is the method: Mice of a conventional immunocompetent mouse strain, Crj: CD-1 (ICR) were used for experimental infection models of systemic candidiasis. 4 weeks old Crj: CD-1 (ICR) mice were used for systemic candidiasis by injecting Candida albicans 5×10^6 conidia/mouse via the tail vein. Treatments were given twice (0, 4 h after infection) on the first day and once daily on following 2 days for systemic candidiasis (b.i.d×1 day followed by q.d.×2 days), intravenously (i.v.). 50% of effective dose (ED50) values was calculated from the survival number at each dose on day 14.

Series [7] relates to mouse hepatocytes. As to the kind of experiment: In vitro hepatotoxicity test. The format is cell-based. To be noted: mouse hepatocyte monolayers, 1 day exposure, morphological evaluation. An excerpt:
The mouse hepatocytes were isolated by a collagenase digestion and cultured in microtest plates. The hepatocyte monolayers were exposed to the test Aerothricins in the culture system for 1 day. After the culture period, the hepatocytes were observed under a microscope and evaluated morphologically. The degree of the morphological alteration (degeneration) of the hepatocytes by the test Aerothricins were compared with WF11243 and LY303366.

Numbered stars: 1 amine (or outer) side, 2 acyl side, 3 side chain; on linkers, the order of the positions; unused ones are H or OH. Bridge positions count the residues as written; N and C are the ends. Square brackets hold non-standard residues; d marks the D form. Peptide text beside a SMILES is read from it. * marks the point of attachment. ξ: configuration not given here. pTerphenylCO(4''-OnC5H11) = CCCCCOc1ccc(-c2ccc(-c3ccc(C(=O)*)cc3)cc2)cc1; Orn(4R-OH,5R-OH) = O=C([C@H](C[C@@H](O)[C@@H](O)N[*:3])N[*:1])[*:2]; X9 = O=C(C[C@@H](CCc1ccc(-c2ccc(OCCCc3ccccc3)cc2)cc1)N[*:2])[*:1]; hTyr(3S-OH,4S-OH) = N[C@H](C(=O)O)[C@H](O)[C@@H](O)c1ccc(O)cc1; X11 = CCCCCOc1ccc(-c2ccc(CC[C@H](CC(=O)[*:1])N[*:2])cc2)cc1; NαBis(2-aminoethyl)dOrn = NCCC[C@H](C(=O)*)N(CCN)CCN; X6 = NCCC[C@H](N)C(=O)N(CCCN)CCCC(N[*:1])C(=O)[*:2]; Pro(3S-OH,4S-Me) = C[C@H]1CN[C@H](C(=O)O)[C@H]1O; X7 = CCCCCCCCCCCCC(C)[C@H](CC(=O)[*:1])O[*:2]; X4 = CCCCCCCCCCCCC[C@H](CC(=O)[*:1])O[*:2]; X3 = NCCCN(CCCC(N[*:1])C(=O)[*:2])[*:3]; X2 = NC(=O)CC(O)C(N[*:1])C(=O)[*:2]; ξDopa = NC(Cc1ccc(O)c(O)c1)C(=O)O; Hyp = O=C(O)[C@@H]1C[C@@H](O)CN1; X1 = O=C(C1C(O)CCN1[*:1])[*:2]; ξY = NC(Cc1ccc(O)cc1)C(=O)O; ξHyp = O=C(O)C1CC(O)CN1; ξOrn = NCCCC(N)C(=O)O; ξT = CC(O)C(N)C(=O)O; ξV = CC(C)C(N)C(=O)O; ξA = CC(N)C(=O)O

With `CCCCCCCCCCCCC(C)[C@@H]1CC(=O)NC(C(C)O)C(=O)NC(C)C(=O)NC(Cc2ccc(O)cc2)C(=O)NC(C(C)C)C(=O)N2CC(O)CC2C(=O)NC(C(C)O)C(=O)NC(C(C)O)C(=O)N2CCC(O)C2C(=O)NC(C(O)CC(N)=O)C(=O)NCC(=O)NC(C(C)O)C(=O)NC(CCCN)C(=O)O1` (stereo partly shown) [Aerothricin 1] ([ξT][ξA][ξY][ξV][ξHyp][ξT][ξT][X1][X2]G[ξT][ξOrn]; linker N-C via X7), the “In vitro Antifungal activity, IC50, Aspegillus fumigatus CF1003” value in series [1] worked out at 0.06 µg/mL. The “In vitro Antifungal activity, IC50, Candida albicans CY1002” value in series [2] amounted to 0.03 µg/mL. Moreover, the “In vitro Antifungal activity, IC50, Fusarium solani CF1088” value in series [3] was 0.21 µg/mL. The acute toxicity result in series [4] is listed as “no acute toxicity”. For the same compound, in series [5], the Solubility entry is given as “Soluble: water, methanol, dimethylsulfoxide”.

As for `CCCCCCCCCCCCC[C@@H]1CC(=O)NC(C(C)O)C(=O)NC(C)C(=O)NC(Cc2ccc(O)c(O)c2)C(=O)NC(C(C)C)C(=O)N2CC(O)CC2C(=O)NC(C(C)O)C(=O)NC(C(C)O)C(=O)N2CCC(O)C2C(=O)NC(C(O)CC(N)=O)C(=O)NCC(=O)NC(C(C)O)C(=O)NC(CCCN)C(=O)O1` (stereo partly shown) [Aerothricin 2] ([ξT][ξA][ξDopa][ξV][ξHyp][ξT][ξT][X1][X2]G[ξT][ξOrn]; linker N-C via X4), the Solubility entry in series [5] is listed as “Soluble: water, methanol, dimethylsulfoxide”.

On to `CCCCCCCCCCCCC[C@@H]1CC(=O)NC(C(C)O)C(=O)NC(C)C(=O)NC(Cc2ccc(OC)cc2)C(=O)NC(C(C)C)C(=O)N2CC(O)CC2C(=O)NC(C(C)O)C(=O)NC(C(C)O)C(=O)N2CCC(O)C2C(=O)NC(C(O)CC(N)=O)C(=O)NCC(=O)NC(C(C)O)C(=O)NC(CCCN)C(=O)O1` (stereo partly shown) [Aerothricin 5] ([ξT][ξA][ξY](Me)[ξV][ξHyp][ξT][ξT][X1][X2]G[ξT][ξOrn]; linker N-C via X4), for which the “In vitro Antifungal activity, IC50, Aspegillus fumigatus CF1003” value in series [1] is 0.07 µg/mL. Further, the “In vitro Antifungal activity, IC50, Candida albicans CY1002” value in series [2] was 0.03 µg/mL. The “In vitro Antifungal activity, IC50, Fusarium solani CF1088” value in series [3] is 0.19 µg/mL. Besides, the “In vivo antifungal activity against systemic candidiasis in mice, ED50 on day 14” value (“In vivo antifungal activity” for short) in series [6] is listed as 0.3 mg/kg.

For `CCCCCCCCCCOc1ccc(CC[C@@H]2CC(=O)NC(C(C)O)C(=O)NC(C)C(=O)NC(Cc3ccc(O)cc3)C(=O)NC(C(C)C)C(=O)N3CC(O)CC3C(=O)NC(C(C)O)C(=O)NC(C(C)O)C(=O)N3CCC(O)C3C(=O)NC(C(O)CC(N)=O)C(=O)NCC(=O)NC(C(C)O)C(=O)NC(CCCN)C(=O)N2)cc1` (stereo partly shown) [Aerothricin 36], the “In vitro Antifungal activity, IC50, Aspegillus fumigatus CF1003” value in series [1] was found to be 0.05 µg/mL. Besides, the “In vitro Antifungal activity, IC50, Candida albicans CY1002” value in series [2] stood at 0.08 µg/mL. In series [3], the “In vitro Antifungal activity, IC50, Fusarium solani CF1088” value stood at 1.00 µg/mL. The “In vivo antifungal activity” value in series [6] was determined as 0.6 mg/kg.

For the compound `CCCCCOc1ccc(-c2ccc(CC[C@@H]3CC(=O)NC(C(C)O)C(=O)NC(C)C(=O)NC(Cc4ccc(O)cc4)C(=O)NC(C(C)C)C(=O)N4CC(O)CC4C(=O)NC(C(C)O)C(=O)NC(C(C)O)C(=O)N4CCC(O)C4C(=O)NC(C(O)CC(N)=O)C(=O)NCC(=O)NC(C(C)O)C(=O)NC(CCCN)C(=O)N3)cc2)cc1` (stereo partly shown) [Aerothricin 41] ([ξT][ξA][ξY][ξV][ξHyp][ξT][ξT][X1][X2]G[ξT][ξOrn]; linker N-C via X11), the “In vitro Antifungal activity, IC50, Aspegillus fumigatus CF1003” value in series [1] is 0.03 µg/mL. Besides, the “In vitro Antifungal activity, IC50, Candida albicans CY1002” value in series [2] was 0.08 µg/mL. Moreover, in series [3], the “In vitro Antifungal activity, IC50, Fusarium solani CF1088” value was 2.40 µg/mL. The “In vivo antifungal activity” value in series [6] stood at 0.3 mg/kg.

Consider `CC1NC(=O)C(C(C)O)NC(=O)C[C@@H](CCc2ccc(-c3ccc(OCCCc4ccccc4)cc3)cc2)NC(=O)C(CCCN)NC(=O)C(C(C)O)NC(=O)CNC(=O)C(C(O)CC(N)=O)NC(=O)C2C(O)CCN2C(=O)C(C(C)O)NC(=O)C(C(C)O)NC(=O)C2CC(O)CN2C(=O)C(C(C)C)NC(=O)C(Cc2ccc(O)cc2)NC1=O` (stereo partly shown) [Aerothricin 46] ([ξT][ξA][ξY][ξV][ξHyp][ξT][ξT][X1][X2]G[ξT][ξOrn]; linker N-C via X9), for which, in series [1], the “In vitro Antifungal activity, IC50, Aspegillus fumigatus CF1003” value is 0.08 µg/mL. The “In vitro Antifungal activity, IC50, Candida albicans CY1002” value in series [2] was found to be 0.09 µg/mL. In addition, the “In vitro Antifungal activity, IC50, Fusarium solani CF1088” value in series [3] turned out to be 1.80 µg/mL. In series [6], the “In vivo antifungal activity” value was 0.4 mg/kg.

`CCCCCCCCCCCCC[C@@H]1CC(=O)NC(C(C)O)C(=O)NC(C)C(=O)NC(Cc2ccc(O)cc2)C(=O)NC(C(C)C)C(=O)N2CC(O)CC2C(=O)NC(C(C)O)C(=O)NC(C(C)O)C(=O)N2CCC(O)C2C(=O)NC(C(O)CC(N)=O)C(=O)NCC(=O)NC(C(C)O)C(=O)NC(CCCN(CCCN)C(=O)[C@@H](N)CCCN)C(=O)O1` (stereo partly shown) [Aerothricin 132] ([ξT][ξA][ξY][ξV][ξHyp][ξT][ξT][X1][X2]G[ξT][X6]; linker N-C via X4): the “In vitro Antifungal activity, IC50, Aspegillus fumigatus CF1003” value in series [1] was found to be 0.10 µg/mL. The “In vitro Antifungal activity, IC50, Candida albicans CY1002” value in series [2] was found to be 0.30 µg/mL. Also, the “In vitro Antifungal activity, IC50, Fusarium solani CF1088” value in series [3] came out at 0.19 µg/mL. Moreover, the Cytotoxicity to hepatocyte in series [7] is above 100 µg/mL.

`CCCCCCCCCCCCC[C@@H]1CC(=O)NC(C(C)O)C(=O)NC(C)C(=O)NC(Cc2ccc(O)cc2)C(=O)NC(C(C)C)C(=O)N2CC(O)CC2C(=O)NC(C(C)O)C(=O)NC(C(C)O)C(=O)N2CCC(O)C2C(=O)NC(C(O)CC(N)=O)C(=O)NCC(=O)NC(C(C)O)C(=O)NC(CCCN(CCCN)C(=O)[C@@H](CCCN)N(CCN)CCN)C(=O)O1` (stereo partly shown) [Aerothricin 135] ([ξT][ξA][ξY][ξV][ξHyp][ξT][ξT][X1][X2]G[ξT][X3](NαBis(2-aminoethyl)dOrn); linker N-C via X4) showed a Cytotoxicity to hepatocyte in series [7] above 100 µg/mL.

In turn, `CCCCCOc1ccc(-c2ccc(-c3ccc(C(=O)N[C@H]4C[C@@H](O)[C@@H](O)NC(=O)[C@@H]5[C@@H](O)[C@@H](C)CN5C(=O)[C@H]([C@@H](C)O)NC(=O)[C@H]([C@H](O)[C@@H](O)c5ccc(O)cc5)NC(=O)[C@@H]5C[C@@H](O)CN5C(=O)[C@H]([C@@H](C)O)NC4=O)cc3)cc2)cc1` [LY303366, reference compound] ({pTerphenylCO(4''-OnC5H11)}-[Orn(4R-OH,5R-OH)]T[Hyp][hTyr(3S-OH,4S-OH)]T[Pro(3S-OH,4S-Me)]; lactam 1-C) showed a Cytotoxicity to hepatocyte in series [7] of 10 µg/mL.
